Experimental data from PubChem BioAssay (NCI).
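How tested: cells in 96-well plates exposed to compound for 48 hours at five concentrations. The concentration for 50% growth inhibition is given as GI50. TGI: concentration producing complete growth inhibition.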

Legend:
Experiment in all cases: NCI anticancer screen, dose series, 48 h
[1] = test system: OVCAR-8 ovarian
[2] = test system: U251 CNS
[3] = test system: SK-OV-3 ovarian
[4] = test system: MDA-MB-435
[5] = test system: NCI-H226 lung
[6] = test system: SW-620 colon
[7] = test system: EKVX NSCLC
[8] = test system: KM12 colon
[9] = test system: SK-MEL-2 melanoma
[10] = test system: RPMI-8226 leukemia
[11] = test system: HOP-62 NSCLC
[12] = test system: MOLT-4 leukemia
[13] = test system: NCI/ADR-RES ovarian
[14] = test system: M14 melanoma
[15] = test system: SF-539 CNS
[16] = test system: CCRF-CEM leukemia
[17] = test system: OVCAR-3 ovarian
[18] = test system: NCI-H460 lung
[19] = test system: NCI-H23 lung
[20] = test system: SK-MEL-5 melanoma
[21] = test system: A549 NSCLC
[22] = test system: CAKI-1 renal
[23] = test system: RXF 393 renal
[24] = test system: SR leukemia
[25] = test system: A498 renal
[26] = test system: PC-3 prostate
[27] = test system: HCT-116 colon
[28] = test system: HCT-15 colon
[29] = test system: BT-549 breast
[30] = test system: NCI-H522 lung
[31] = test system: T-47D breast
[32] = test system: LOX IMVI melanoma
[33] = test system: UACC-62 melanoma
[34] = test system: DU-145 prostate
[35] = test system: SN12C renal
[36] = test system: MDA-MB-231 breast
[37] = test system: ACHN renal
[38] = test system: COLO 205 colon
[39] = test system: SK-MEL-28 melanoma
[40] = test system: 786-0 renal
[41] = test system: TK-10 renal
[42] = test system: UO-31 renal
[43] = test system: SF-295 CNS
[44] = test system: OVCAR-5 ovarian
[45] = test system: K-562 leukemia
[46] = test system: HS 578T breast
[47] = test system: HT29 colon
[48] = test system: MCF7 breast
[49] = test system: SF-268 CNS
[50] = test system: UACC-257 melanoma
[51] = test system: HL-60(TB) leukemia
[52] = test system: HOP-92 NSCLC
[53] = test system: HCC-2998 colon
[54] = test system: IGROV1 ovarian
[55] = test system: SNB-19 CNS
[56] = test system: SNB-75 CNS

CN(C)CCCNc1nc2ccccc2c2[nH]c3ccccc3c12
GI50 [1]: 917 nM
TGI [1]: 6650 nM
GI50 [2]: 679 nM
TGI [2]: 2590 nM
GI50 [3]: 1490 nM
TGI [3]: 6110 nM
GI50 [4]: 1280 nM
TGI [4]: 3890 nM
GI50 [5]: 1260 nM
TGI [5]: 4220 nM
GI50 [6]: 387 nM
TGI [6]: 7210 nM
GI50 [7]: 1380 nM
TGI [7]: 4750 nM
GI50 [8]: 721 nM
TGI [8]: 2280 nM
GI50 [9]: 6690 nM
TGI [9]: 38800 nM
GI50 [10]: 811 nM
TGI [10]: 1950 nM
GI50 [11]: 497 nM
TGI [11]: 3770 nM
GI50 [12]: 276 nM
TGI [12]: 50000 nM
GI50 [13]: 769 nM
TGI [13]: 4080 nM
GI50 [14]: 1110 nM
TGI [14]: 2460 nM
GI50 [15]: 654 nM
TGI [15]: 1900 nM
GI50 [16]: 206 nM
TGI [16]: 1380 nM
GI50 [17]: 660 nM
TGI [17]: 2230 nM
GI50 [18]: 737 nM
TGI [18]: 3280 nM
GI50 [19]: 752 nM
TGI [19]: 1640 nM
GI50 [20]: 3020 nM
TGI [20]: 8330 nM
GI50 [21]: 402 nM
TGI [21]: 8180 nM
GI50 [22]: 1090 nM
TGI [22]: 3010 nM
GI50 [23]: 1230 nM
TGI [23]: 3550 nM
GI50 [24]: 616 nM
TGI [24]: 50000 nM
GI50 [25]: 6420 nM
TGI [25]: 13400 nM
GI50 [26]: 897 nM
TGI [26]: 2970 nM
GI50 [27]: 222 nM
TGI [27]: 1670 nM
GI50 [28]: 266 nM
TGI [28]: 4310 nM
GI50 [29]: 1860 nM
TGI [29]: 5350 nM
GI50 [30]: 1320 nM
TGI [30]: 11100 nM
GI50 [31]: 5180 nM
TGI [31]: 16500 nM
GI50 [32]: 750 nM
TGI [32]: 1640 nM
GI50 [33]: 4010 nM
TGI [33]: 11900 nM
GI50 [34]: 720 nM
TGI [34]: 4360 nM
GI50 [35]: 639 nM
TGI [35]: 2260 nM
GI50 [36]: 907 nM
TGI [36]: 2160 nM
GI50 [37]: 703 nM
TGI [37]: 2240 nM
GI50 [38]: 795 nM
TGI [38]: 10100 nM
GI50 [39]: 2040 nM
TGI [39]: 5840 nM
GI50 [40]: 958 nM
TGI [40]: 5200 nM
GI50 [41]: 1450 nM
TGI [41]: 4040 nM
GI50 [42]: 1690 nM
TGI [42]: 10900 nM
GI50 [43]: 972 nM
TGI [43]: 3110 nM
GI50 [44]: 1280 nM
TGI [44]: 9360 nM
GI50 [45]: 1640 nM
TGI [45]: 22200 nM
GI50 [46]: 3040 nM
TGI [46]: 9610 nM
GI50 [47]: 163 nM
TGI [47]: 33000 nM
GI50 [48]: 417 nM
TGI [48]: 1810 nM
GI50 [49]: 1390 nM
TGI [49]: 4100 nM
GI50 [50]: 3480 nM
TGI [50]: 14700 nM
GI50 [51]: 1050 nM
TGI [51]: 2490 nM
GI50 [52]: 1260 nM
TGI [52]: 3830 nM
GI50 [53]: 251 nM
TGI [53]: 942 nM
GI50 [54]: 1390 nM
TGI [54]: 18400 nM
GI50 [55]: 1570 nM
TGI [55]: 6200 nM
GI50 [56]: 1160 nM
TGI [56]: 3780 nM
